From ChEMBL document CHEMBL1136829, “Adenosine kinase inhibitors: polar 7-substitutent of pyridopyrimidine derivatives improving their locomotor selectivity” (Bioorg Med Chem Lett, 2003)

Assays:
Adenosine kinase [1] = target: T1, Adenosine kinase (Homo sapiens, UniProt P55263); assay: Inhibitory concentration against adenosine kinase was determined
Adenosine kinase [2] = target: T1, Adenosine kinase; assay: Inhibitory concentration against adenosine kinase was determined in cell assay
Rattus norvegicus = species: Rattus norvegicus; assay: Effective dose to reduce pain in carregenin induced thermal hyperalgesia assay in rat was determined; type: functional
[3] = Effective dose to reduce locomotor side effects in animals was determined; type: functional
[4] = Percent inhibition of the locomotor side effects in animals at 30 umol/kg po was determined; type: functional
[5] = Percent inhibition of the locomotor side effects in animals at 100 umol/kg po was determined; type: functional

T1 sequence (P55263 whole entry): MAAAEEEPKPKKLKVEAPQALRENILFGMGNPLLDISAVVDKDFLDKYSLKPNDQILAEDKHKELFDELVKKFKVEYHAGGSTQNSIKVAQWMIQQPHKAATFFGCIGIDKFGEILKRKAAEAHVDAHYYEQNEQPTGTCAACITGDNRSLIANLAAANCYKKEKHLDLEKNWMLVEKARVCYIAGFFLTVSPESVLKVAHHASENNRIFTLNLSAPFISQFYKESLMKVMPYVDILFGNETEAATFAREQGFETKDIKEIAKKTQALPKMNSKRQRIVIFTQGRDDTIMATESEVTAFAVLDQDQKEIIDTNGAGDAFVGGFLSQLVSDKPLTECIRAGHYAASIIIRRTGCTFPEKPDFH

Structure (SMILES)	IC50 (Adenosine kinase [1]) [nM]	IC50 (Adenosine kinase [2]) [nM]	ED50 (Rattus norvegicus) [µmol/kg]	ED50 [3] [µmol/kg]	inhibition in vivo at 30 µmol/kg [4] [%]	inhibition in vivo at 100 µmol/kg [5] [%]
C/C(=N/OC1CCOCC1)C1(O)CCN(c2ccc(-c3cc(-c4cccc(Br)c4)c4c(N)ncnc4n3)cn2)CC1	31.7	43.7	5	30		
Nc1ncnc2nc(-c3ccc(N4CCC(CCOC5CCOCC5)CC4)nn3)cc(-c3cccc(Br)c3)c12	22.8	89.5	30	9		
Nc1ncnc2nc(-c3ccc(N4CCC(=NOC5CCOCC5)CC4)nn3)cc(-c3cccc(Br)c3)c12	7.1	52	2	7		
CCOC1CCN(c2ccc(-c3cc(-c4cccc(Br)c4)c4c(N)ncnc4n3)nn2)CC1	10.4	51.7	7	20		
Nc1ncnc2nc(-c3ccc(N4CCC(COC5CCOCC5)CC4)nn3)cc(-c3cccc(Br)c3)c12	2.8	17.3	5	5		
Nc1ncnc2nc(-c3ccc(N4C[C@@H](O)[C@@H](O)C4)nc3)cc(-c3cccc(Br)c3)c12	6.5	130	2		73	
CON=C1CCN(c2ccc(-c3cc(-c4cccc(Br)c4)c4c(N)ncnc4n3)nn2)CC1	18.8	74.4	13	6		
CCO[C@H]1CN(c2ccc(-c3cc(-c4cccc(Br)c4)c4c(N)ncnc4n3)nn2)C[C@H]1OCC	7.2	40.7	3	25		
N#C[C@H]1CN(c2ccc(-c3cc(-c4cccc(Br)c4)c4c(N)ncnc4n3)cn2)C[C@H]1O	7.5	496	4		91	
Nc1ncnc2nc(-c3ccc(N4CCC[C@H]4CO)nn3)cc(-c3cccc(Br)c3)c12	16.2	154	10		98	75
COCCOC1CCN(c2ccc(-c3cc(-c4cccc(Br)c4)c4c(N)ncnc4n3)nn2)CC1	15.1	81.9	3	10		
Nc1ncnc2nc(-c3ccc(N4CC5CC4CO5)nc3)cc(-c3cccc(Br)c3)c12 (stereo unspecified)	7.5	19.5	2	8		
Nc1ncnc2nc(-c3ccc(N4CCC(=NOC5CCOCC5)CC4)nc3)cc(-c3cccc(Br)c3)c12	10		2	10		
Nc1ncnc2nc(-c3ccc(N4CCC5(CC4)COCO5)nc3)cc(-c3cccc(Br)c3)c12	8.3	378	2	6		
Nc1ncnc2nc(-c3ccc(N4CCC(O)(C5CCOC5=O)CC4)nc3)cc(-c3cccc(Br)c3)c12 (stereo unspecified)	8.1	50.2	4		97	87
